Test [1] addresses T1, SUMO-activating enzyme (Homo sapiens, UniProt Q9UBT2). Put plainly: SUMOylation inhibitor hit validation, confirmation, SUMOylation inhibitor project, biochemical, AlphaScreen (AID 2018). Type of test: functional. On the technique in general: Alpha assays give light when donor and acceptor beads are brought close together.
Test [2] has as its target Serine/threonine-protein phosphatase (Homo sapiens, UniProt Q9BPW0). The test can be described thus: PP5 phosphatase inhibitors, dose response, biochemical, fluorescence (AID 2395).
In test [3] the target is T1, SUMO-activating enzyme. The test can be described thus: inhibitors of in vitro SUMOylation cascade, primary screen, biochemical, HTRF, uHTS (AID 2006). It counts as protein-complex assay. Background: In TR-FRET formats the signal depends on donor and acceptor labels being close together.
The target in test [4] is T2, Insulin-degrading enzyme (Homo sapiens, UniProt P14735).
T2 sequence (P14735 whole entry): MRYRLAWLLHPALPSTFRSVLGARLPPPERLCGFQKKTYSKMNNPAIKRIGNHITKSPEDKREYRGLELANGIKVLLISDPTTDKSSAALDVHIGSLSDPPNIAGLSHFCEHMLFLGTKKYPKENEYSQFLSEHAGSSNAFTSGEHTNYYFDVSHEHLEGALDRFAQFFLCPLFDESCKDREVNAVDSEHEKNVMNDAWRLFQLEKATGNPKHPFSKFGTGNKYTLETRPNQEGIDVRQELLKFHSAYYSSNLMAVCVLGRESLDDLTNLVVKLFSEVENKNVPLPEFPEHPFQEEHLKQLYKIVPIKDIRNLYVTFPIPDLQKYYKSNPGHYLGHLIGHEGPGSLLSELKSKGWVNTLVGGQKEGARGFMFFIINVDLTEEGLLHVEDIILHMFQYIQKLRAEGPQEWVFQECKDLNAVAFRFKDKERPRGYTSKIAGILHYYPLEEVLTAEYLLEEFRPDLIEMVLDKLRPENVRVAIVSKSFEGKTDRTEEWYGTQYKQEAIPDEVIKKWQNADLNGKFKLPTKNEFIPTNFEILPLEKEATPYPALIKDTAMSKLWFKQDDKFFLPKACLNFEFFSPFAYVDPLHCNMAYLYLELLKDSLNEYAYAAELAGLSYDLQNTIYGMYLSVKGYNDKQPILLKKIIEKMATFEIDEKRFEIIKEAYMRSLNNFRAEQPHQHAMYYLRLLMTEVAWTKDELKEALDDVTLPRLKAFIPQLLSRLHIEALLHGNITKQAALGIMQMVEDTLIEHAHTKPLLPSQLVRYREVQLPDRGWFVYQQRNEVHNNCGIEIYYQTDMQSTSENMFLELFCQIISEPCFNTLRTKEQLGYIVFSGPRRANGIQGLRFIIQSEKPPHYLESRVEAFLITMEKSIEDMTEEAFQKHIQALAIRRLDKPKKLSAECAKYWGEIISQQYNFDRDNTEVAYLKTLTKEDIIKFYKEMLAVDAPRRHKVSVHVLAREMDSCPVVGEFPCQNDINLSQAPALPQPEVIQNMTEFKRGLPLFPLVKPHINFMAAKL
Put plainly: activators of recombinant IDE enzyme, dose response, counter-screen for IDE activator project, biochemical, fluorescence polarization (AID 588681). A general note: The purpose of a counterscreen is to sort out artefacts and off-target activity.

The nature of test [5]: Luminescence Cell-Based Dose Response HTS to Identify Inhibitors of 5'UTR Stem-Loop Driven Prion Protein mRNA Translation in H4 Neuroglioblastoma Cells. [Related pubchem assays: 1827 (Project Summary), 1813 (Primary HTS)]. It counts as functional.
Test [6] addresses T2, Insulin-degrading enzyme. Put plainly: activators of endogenous IDE in HEK cells, dose response, cell-based, fluorescence polarization (AID 588439). It counts as functional.
Test [7] addresses T3, Streptokinase A (Streptococcus pyogenes serotype M1, UniProt P10520).
T3 sequence (P10520 whole entry): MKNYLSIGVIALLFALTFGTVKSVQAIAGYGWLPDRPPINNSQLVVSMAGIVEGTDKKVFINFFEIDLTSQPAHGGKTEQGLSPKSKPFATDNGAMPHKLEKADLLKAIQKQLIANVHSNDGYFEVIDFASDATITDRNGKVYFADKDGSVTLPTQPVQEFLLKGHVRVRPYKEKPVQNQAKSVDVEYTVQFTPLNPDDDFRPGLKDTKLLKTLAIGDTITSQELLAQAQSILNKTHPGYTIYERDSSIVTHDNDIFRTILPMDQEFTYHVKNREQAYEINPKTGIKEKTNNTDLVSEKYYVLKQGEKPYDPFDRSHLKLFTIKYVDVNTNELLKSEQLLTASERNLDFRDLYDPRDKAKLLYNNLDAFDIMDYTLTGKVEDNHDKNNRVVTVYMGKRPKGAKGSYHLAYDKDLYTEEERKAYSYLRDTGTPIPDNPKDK
The test can be described thus: S. pyogenes streptokinase expression inhibitors, potency, dose response, plasminogen activation absorbance, OD405 (AID 1914).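 Also: secreted streptokinase activity via plasminogen activation per viability signal from cell pellet.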 Type of test: functional, Streptococcus pyogenes M1 GAS.

In test [8] the target is Maternal embryonic leucine zipper kinase (Homo sapiens, UniProt Q14680). Type of test: functional.
For test [9], the target named is Tyrosine-protein kinase Lck (Homo sapiens, UniProt P06239). It counts as functional.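 Also: lck was assayed as one member of a kinase panel.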
Test [10] has as its target Interleukin-1 receptor-associated kinase 1 (Homo sapiens, UniProt P51617). It counts as functional.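 Also: IRAK1 tested as one member of a kinome panel.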
Test [11] deals with Testis-specific serine/threonine-protein kinase 1 (Homo sapiens, UniProt Q9BXA7). Type of test: functional.
Chain of Testis-specific serine/threonine-protein kinase 1 (Q9BXA7 whole entry): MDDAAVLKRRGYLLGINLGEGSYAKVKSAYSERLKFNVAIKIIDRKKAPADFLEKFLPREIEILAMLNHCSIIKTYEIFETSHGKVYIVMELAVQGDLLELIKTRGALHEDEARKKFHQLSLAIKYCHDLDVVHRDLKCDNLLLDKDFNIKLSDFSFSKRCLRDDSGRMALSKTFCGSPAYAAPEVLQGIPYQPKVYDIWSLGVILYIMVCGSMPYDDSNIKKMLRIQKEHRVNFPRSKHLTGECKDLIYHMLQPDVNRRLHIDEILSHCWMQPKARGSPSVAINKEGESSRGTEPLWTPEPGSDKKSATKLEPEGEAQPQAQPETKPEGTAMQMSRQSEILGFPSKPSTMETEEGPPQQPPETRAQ
For test [12], the target named is Mast/stem cell growth factor receptor Kit (Homo sapiens, UniProt P10721). It counts as functional.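 Also: KIT entry within a kinase panel assay.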
Test [13] addresses Insulin-like growth factor 1 receptor (Homo sapiens, UniProt P08069). The test can be described thus: Navigating the Kinome. Panel member name: IGF1R. Type of test: functional.
For test [14], the target named is Serine/threonine-protein kinase Chk1 (Homo sapiens, UniProt O14757). Type of test: functional.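 Also: measured as one member of a kinome-wide kinase profiling panel.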
Chain of Serine/threonine-protein kinase Chk1 (O14757 whole entry): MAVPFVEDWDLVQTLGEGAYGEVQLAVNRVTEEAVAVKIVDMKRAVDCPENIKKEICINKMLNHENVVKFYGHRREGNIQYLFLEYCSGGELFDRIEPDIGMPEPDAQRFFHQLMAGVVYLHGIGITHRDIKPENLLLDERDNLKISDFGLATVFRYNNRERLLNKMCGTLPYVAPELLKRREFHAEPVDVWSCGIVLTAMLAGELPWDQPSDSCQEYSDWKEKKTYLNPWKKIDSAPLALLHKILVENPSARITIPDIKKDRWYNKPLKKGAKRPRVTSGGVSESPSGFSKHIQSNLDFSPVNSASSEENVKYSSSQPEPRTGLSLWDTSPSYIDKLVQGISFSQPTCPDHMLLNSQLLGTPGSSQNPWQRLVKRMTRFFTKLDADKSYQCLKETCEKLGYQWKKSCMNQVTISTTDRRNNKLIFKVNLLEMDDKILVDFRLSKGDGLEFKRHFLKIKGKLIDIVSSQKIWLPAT
The target in test [15] is ALK tyrosine kinase receptor (Homo sapiens, UniProt Q9UM73). Type of test: functional.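 Also: ALK tested as one member of a kinase panel screen.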
Chain of ALK tyrosine kinase receptor (Q9UM73 whole entry): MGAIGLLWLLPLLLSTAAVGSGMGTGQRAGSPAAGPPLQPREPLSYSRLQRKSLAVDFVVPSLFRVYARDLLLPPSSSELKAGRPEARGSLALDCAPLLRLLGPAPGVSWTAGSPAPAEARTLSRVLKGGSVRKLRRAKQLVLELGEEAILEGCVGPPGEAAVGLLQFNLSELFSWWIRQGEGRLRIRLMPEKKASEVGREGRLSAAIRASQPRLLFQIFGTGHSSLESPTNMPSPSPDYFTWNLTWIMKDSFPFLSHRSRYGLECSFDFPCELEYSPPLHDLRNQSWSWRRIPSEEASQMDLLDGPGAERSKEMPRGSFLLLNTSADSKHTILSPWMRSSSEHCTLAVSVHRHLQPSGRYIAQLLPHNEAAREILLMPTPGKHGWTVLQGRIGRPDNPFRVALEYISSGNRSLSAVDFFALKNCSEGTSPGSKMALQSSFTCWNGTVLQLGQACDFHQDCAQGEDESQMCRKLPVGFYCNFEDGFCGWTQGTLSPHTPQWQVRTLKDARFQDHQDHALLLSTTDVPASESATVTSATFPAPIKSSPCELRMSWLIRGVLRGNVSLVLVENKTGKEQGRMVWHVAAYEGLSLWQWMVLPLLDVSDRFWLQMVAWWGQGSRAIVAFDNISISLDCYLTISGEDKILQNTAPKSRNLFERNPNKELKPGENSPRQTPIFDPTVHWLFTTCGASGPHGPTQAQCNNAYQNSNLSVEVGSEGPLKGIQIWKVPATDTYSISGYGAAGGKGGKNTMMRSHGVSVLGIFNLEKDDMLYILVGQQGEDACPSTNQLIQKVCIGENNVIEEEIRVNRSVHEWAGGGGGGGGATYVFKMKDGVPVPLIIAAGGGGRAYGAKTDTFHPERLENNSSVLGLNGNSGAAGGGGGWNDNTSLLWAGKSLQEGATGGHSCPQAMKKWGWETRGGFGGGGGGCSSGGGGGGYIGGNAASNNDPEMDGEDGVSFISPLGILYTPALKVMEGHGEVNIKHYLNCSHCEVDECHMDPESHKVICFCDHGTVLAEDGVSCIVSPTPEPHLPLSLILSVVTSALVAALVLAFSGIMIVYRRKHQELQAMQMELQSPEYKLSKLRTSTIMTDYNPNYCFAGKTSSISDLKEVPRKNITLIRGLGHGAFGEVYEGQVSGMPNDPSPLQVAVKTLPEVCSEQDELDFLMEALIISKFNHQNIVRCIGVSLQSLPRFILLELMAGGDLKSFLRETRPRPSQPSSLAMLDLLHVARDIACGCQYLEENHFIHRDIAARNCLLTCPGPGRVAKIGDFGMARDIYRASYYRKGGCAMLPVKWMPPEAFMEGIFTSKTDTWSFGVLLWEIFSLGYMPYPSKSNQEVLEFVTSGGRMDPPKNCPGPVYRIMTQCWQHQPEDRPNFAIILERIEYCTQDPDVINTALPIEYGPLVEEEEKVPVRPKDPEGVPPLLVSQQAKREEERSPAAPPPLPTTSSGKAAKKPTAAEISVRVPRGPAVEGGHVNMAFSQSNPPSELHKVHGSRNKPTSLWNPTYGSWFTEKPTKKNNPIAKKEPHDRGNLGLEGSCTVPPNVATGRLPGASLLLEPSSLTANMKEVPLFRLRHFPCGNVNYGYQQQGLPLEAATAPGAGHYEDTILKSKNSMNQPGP
Test [16] concerns the target Protein kinase C zeta type (Homo sapiens, UniProt Q05513). Type of test: functional.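 Also: measured as one member of a broad kinase profiling panel.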
In test [17] the target is Protein-tyrosine kinase 2-beta (Homo sapiens, UniProt Q14289). Type of test: functional.
Chain of Protein-tyrosine kinase 2-beta (Q14289 whole entry): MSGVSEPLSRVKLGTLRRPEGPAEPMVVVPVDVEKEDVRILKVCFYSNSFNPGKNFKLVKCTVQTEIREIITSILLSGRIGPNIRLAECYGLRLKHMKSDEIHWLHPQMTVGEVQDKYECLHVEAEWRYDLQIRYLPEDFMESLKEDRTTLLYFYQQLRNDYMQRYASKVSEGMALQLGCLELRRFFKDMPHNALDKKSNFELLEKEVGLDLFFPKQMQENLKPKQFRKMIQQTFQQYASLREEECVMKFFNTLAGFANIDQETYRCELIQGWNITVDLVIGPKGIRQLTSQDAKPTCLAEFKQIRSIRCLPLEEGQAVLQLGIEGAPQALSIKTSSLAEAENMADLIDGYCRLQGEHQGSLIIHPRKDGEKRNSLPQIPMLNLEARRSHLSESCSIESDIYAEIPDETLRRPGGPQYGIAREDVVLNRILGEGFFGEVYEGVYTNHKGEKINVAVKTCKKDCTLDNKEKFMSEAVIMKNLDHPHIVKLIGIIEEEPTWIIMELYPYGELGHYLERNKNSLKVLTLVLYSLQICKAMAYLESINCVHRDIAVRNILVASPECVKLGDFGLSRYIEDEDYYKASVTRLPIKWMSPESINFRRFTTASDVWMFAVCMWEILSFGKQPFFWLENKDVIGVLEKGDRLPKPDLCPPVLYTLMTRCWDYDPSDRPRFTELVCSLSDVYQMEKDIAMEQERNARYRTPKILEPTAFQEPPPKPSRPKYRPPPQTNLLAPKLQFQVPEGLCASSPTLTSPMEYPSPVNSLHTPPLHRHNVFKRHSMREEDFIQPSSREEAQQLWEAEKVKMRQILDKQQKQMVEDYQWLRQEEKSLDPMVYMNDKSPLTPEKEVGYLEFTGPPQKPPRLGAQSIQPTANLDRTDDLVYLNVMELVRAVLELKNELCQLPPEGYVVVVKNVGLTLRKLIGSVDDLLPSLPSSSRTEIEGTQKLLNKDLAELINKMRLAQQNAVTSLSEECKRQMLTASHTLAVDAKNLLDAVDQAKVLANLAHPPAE
Test [18] addresses Misshapen-like kinase 1 (Homo sapiens, UniProt Q8N4C8). It counts as functional.
Test [19] concerns the target Serine/threonine-protein kinase BRSK1 (Homo sapiens, UniProt Q8TDC3). Type of test: functional.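 Also: measured within a kinome-wide kinase panel, with the target listed as KIAA1811.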
Test [20] addresses Serine/threonine-protein kinase Chk2 (Homo sapiens, UniProt O96017). Type of test: functional.
In test [21] the target is 5'-AMP-activated protein kinase catalytic subunit alpha-1 (Homo sapiens, UniProt Q13131). It counts as functional.
In test [22] the target is Fibroblast growth factor receptor 3 (Homo sapiens, UniProt P22607). It counts as functional.
The target of test [23] is SRSF protein kinase 1 (Homo sapiens, UniProt Q96SB4). Type of test: functional.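 Also: measured as one member of a kinome-wide kinase profiling panel.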
Test [24] has as its target Interleukin-1 receptor-associated kinase 4 (Homo sapiens, UniProt Q9NWZ3). Type of test: functional.
Test [25] has as its target Homeodomain-interacting protein kinase 2 (Homo sapiens, UniProt Q9H2X6). It counts as functional.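 Also: measured within a kinome-wide kinase profiling panel, HIPK2 being one panel member.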

Activity calls are given as the source filed them. Some results are limits rather than exact numbers.

T1 sequence (Q9UBE0 whole entry): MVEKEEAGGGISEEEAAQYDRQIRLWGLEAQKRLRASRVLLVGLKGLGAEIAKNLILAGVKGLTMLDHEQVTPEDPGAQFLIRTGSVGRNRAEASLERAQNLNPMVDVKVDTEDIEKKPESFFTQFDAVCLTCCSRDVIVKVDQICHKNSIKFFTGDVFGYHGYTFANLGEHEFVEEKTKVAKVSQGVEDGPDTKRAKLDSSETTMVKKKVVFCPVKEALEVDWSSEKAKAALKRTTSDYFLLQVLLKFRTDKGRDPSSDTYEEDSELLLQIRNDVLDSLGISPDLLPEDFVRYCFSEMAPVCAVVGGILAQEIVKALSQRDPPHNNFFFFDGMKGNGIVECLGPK
T1 sequence (Q9UBT2 whole entry): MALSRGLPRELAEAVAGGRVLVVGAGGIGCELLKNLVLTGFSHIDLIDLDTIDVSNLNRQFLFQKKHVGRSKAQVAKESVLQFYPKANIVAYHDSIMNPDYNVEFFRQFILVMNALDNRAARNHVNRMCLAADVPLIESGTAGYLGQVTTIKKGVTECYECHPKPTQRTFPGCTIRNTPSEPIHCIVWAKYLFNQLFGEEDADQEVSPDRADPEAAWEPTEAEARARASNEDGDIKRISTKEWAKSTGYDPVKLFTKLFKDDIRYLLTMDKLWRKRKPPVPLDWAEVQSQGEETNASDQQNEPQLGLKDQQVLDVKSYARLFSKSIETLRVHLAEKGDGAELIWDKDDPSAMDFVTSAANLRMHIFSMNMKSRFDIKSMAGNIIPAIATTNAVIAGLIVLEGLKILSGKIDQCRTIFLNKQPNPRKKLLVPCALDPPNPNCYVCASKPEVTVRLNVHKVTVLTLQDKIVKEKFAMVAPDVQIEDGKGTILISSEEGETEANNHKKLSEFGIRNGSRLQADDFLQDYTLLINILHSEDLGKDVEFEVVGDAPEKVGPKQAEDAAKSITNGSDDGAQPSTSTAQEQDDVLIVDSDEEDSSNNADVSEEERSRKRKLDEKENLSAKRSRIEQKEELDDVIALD
Chain of Serine/threonine-protein kinase Chk2 (O96017 whole entry): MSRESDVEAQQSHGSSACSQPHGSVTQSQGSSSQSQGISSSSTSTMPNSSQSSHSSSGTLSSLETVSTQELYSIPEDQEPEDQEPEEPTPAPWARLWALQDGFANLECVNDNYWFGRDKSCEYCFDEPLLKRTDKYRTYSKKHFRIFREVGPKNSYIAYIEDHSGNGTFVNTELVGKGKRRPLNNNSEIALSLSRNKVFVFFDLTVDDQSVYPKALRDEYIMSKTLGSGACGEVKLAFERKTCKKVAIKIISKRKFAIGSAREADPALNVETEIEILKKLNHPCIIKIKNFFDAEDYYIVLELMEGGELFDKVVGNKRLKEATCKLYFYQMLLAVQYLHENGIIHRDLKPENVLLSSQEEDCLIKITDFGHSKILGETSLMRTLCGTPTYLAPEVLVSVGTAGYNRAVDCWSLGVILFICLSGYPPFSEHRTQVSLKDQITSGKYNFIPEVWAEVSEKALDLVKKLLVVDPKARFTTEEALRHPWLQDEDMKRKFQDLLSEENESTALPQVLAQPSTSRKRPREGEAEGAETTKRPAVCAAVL

Usually IC50 stands for the concentration at which inhibition is half-maximal. With `Cc1ccc(C(=O)NC2(O)C(=O)c3ccccc3C2=O)cc1C`, the 50% inhibitory concentration (IC50) in test [1] is 0.87 µM (active); in test [2], > 0.828 µM (active); in test [3] it was 5.71 µM (active).
For orientation: EC50 means the concentration giving half of the maximal effect. As for `CC[C@@H](C)[C@H](CNC)NC[C@@H](Cc1cccc2ccccc12)NCCc1cccc(C(F)(F)F)c1`, the EC50 in test [4] was > 54.7 µM (inactive); in [5], > 120 µM (not active); in test [6], 6.41 µM (active).
As for `Cc1ccc(S(=O)(=O)/N=C2\C=C(Nc3cccc(C(=O)O)c3)C(=O)c3ccccc32)cc1`, in [7], the 50% effective concentration (EC50) is 47.3 µM (active).
What is called Ki is the dissociation constant of the complex between target and ligand, obtained from inhibition or displacement. As for `CC(C)(CO)CNc1nccc(-c2c(-c3ccc(F)cc3)nc3c(CC4CC4)nccn23)n1`, the Ki in test [8] is > 1.58 µM (inactive); in test [9], > 2.51 µM (inactive); in test [10], > 7.94 µM (inactive); in [11], > 1.58 µM (inactive); in test [12], > 1.26 µM (inactive); in test [13], > 2 µM (inactive). Further, the Ki was > 7.94 µM (inactive) in [14]; > 1.26 µM (inactive) in test [15]; > 7.94 µM (inactive) in [16]; > 1.58 µM (inactive) in test [17]; 3.16 µM (active) in test [18]; > 10 µM (inactive) in test [19]. The Ki in test [20] was > 5.01 µM (inactive); in test [21], > 6.31 µM (inactive); in test [22], > 2 µM (inactive); in test [23] it was > 7.94 µM (inactive); in test [24], > 10 µM (inactive); in test [25] it was > 3.16 µM (inactive).

These data come from ChEMBL document CHEMBL1201862, “PubChem BioAssay data set” (2004).
